In PubChem BioAssay AID1745844 (Carcinogenic Potency Database (CPDB), 2022):
The source made the active and inactive calls. The rule behind the calls is not given here.

System: rodent lifetime carcinogenesis bioassay, tumor incidence TD50
Assay: carcinogenic potency in animals, long-term in vivo studies, CPDB compilation (AID 1745844)

Nc1ccc([N+](=O)[O-])cc1O
TD50 (mouse, strain B6C3F1, females, by gavage, site: any site (literature study), lesion: several types, types named in the paper, dosed 103 weeks, study length 104 weeks): 5760 mg/kg/day (inactive)
TD50 (mouse, strain B6C3F1, females, by gavage, site: lung, lesion: alveolar/bronchiolar adenoma + alveolar/bronchiolar carcinoma, dosed 103 weeks, study length 104 weeks): 807000 mg/kg/day
carcinogen call (mouse, strain B6C3F1, males, by gavage, site: any site (literature study), lesion: several types, types named in the paper, dosed 103 weeks, study length 104 weeks): negative (inactive)
carcinogen call (rat, strain Fischer 344, females, by gavage, site: any site (literature study), lesion: several types, types named in the paper, dosed 103 weeks, study length 104 weeks): negative (inactive)
TD50 (rat, strain Fischer 344, males, by gavage, site: adrenal medulla, lesion: pheochromocytoma + pheochromocytoma, malignant, dosed 103 weeks, study length 104 weeks): 101 mg/kg/day
TD50 (rat, strain Fischer 344, males, by gavage, site: any site (literature study), lesion: several types, types named in the paper, dosed 103 weeks, study length 104 weeks): 33.6 mg/kg/day
TD50 (rat, strain Fischer 344, males, by gavage, site: liver, lesion: hepatocellular adenoma + hepatocellular carcinoma + neoplastic nodule, dosed 103 weeks, study length 104 weeks): 1560 mg/kg/day
TD50 (rat, strain Fischer 344, males, by gavage, site: pancreas, lesion: acinar-cell adenoma, dosed 103 weeks, study length 104 weeks): 111 mg/kg/day
TD50 (rat, strain Fischer 344, males, by gavage, site: pancreas, lesion: acinar-cell carcinoma + acinar-cell adenoma, dosed 103 weeks, study length 104 weeks): 107 mg/kg/day
TD50 (rat, strain Fischer 344, males, by gavage, site: pancreatic islets, lesion: islet-cell carcinoma, dosed 103 weeks, study length 104 weeks): 393 mg/kg/day
TD50 (rat, strain Fischer 344, males, by gavage, site: preputial gland, lesion: adenoma, NOS + carcinoma, NOS, dosed 103 weeks, study length 104 weeks): 392 mg/kg/day
TD50 (rat, strain Fischer 344, males, by gavage, site: preputial gland, lesion: carcinoma, NOS, dosed 103 weeks, study length 104 weeks): 562 mg/kg/day
TD50 (rat, strain Fischer 344, males, by gavage, site: testis, lesion: interstitial-cell tumor, dosed 103 weeks, study length 104 weeks): 28.6 mg/kg/day

CCN(CC)CCCNC(=O)Cn1ncc(-c2ccccc2)c1-c1ccccc1
carcinogen call (rat, strain Charles River CD (Sprague-Dawley), females, by gavage, site: liver, lesion: one or several types, types not named, dosed 52 weeks, study length 52 weeks): negative (inactive)
carcinogen call (rat, strain Charles River CD (Sprague-Dawley), males, by gavage, site: liver, lesion: one or several types, types not named, dosed 52 weeks, study length 52 weeks): negative (inactive)

CC1=C(C(=O)OC(C)C)C(c2cccc([N+](=O)[O-])c2)C(C(=O)OC2CN(C(c3ccccc3)c3ccccc3)C2)=C(N)N1 (centres undefined)
carcinogen call (mouse, strain B6C3F1, females, by gavage, site: any site (literature study), lesion: several types, types named in the paper, dosed 78 weeks, study length 78 weeks): negative (inactive)
carcinogen call (mouse, strain B6C3F1, females, by gavage, site: liver, lesion: hepatocellular adenoma, dosed 78 weeks, study length 78 weeks): negative (inactive)
carcinogen call (mouse, strain B6C3F1, females, by gavage, site: liver, lesion: hepatocellular carcinoma, dosed 78 weeks, study length 78 weeks): negative (inactive)
TD50 (mouse, strain B6C3F1, females, by gavage, site: lung, lesion: alveolar/bronchiolar adenoma, dosed 78 weeks, study length 78 weeks): 217 mg/kg/day (inactive)
carcinogen call (mouse, strain B6C3F1, females, by gavage, site: lung, lesion: alveolar/bronchiolar carcinoma, dosed 78 weeks, study length 78 weeks): negative (inactive)
TD50 (mouse, strain B6C3F1, males, by gavage, site: any site (literature study), lesion: several types, types named in the paper, dosed 78 weeks, study length 78 weeks): 83.5 mg/kg/day (inactive)
carcinogen call (mouse, strain B6C3F1, males, by gavage, site: liver, lesion: hepatocellular adenoma, dosed 78 weeks, study length 78 weeks): negative (inactive)
carcinogen call (mouse, strain B6C3F1, males, by gavage, site: liver, lesion: hepatocellular carcinoma, dosed 78 weeks, study length 78 weeks): negative (inactive)
TD50 (mouse, strain B6C3F1, males, by gavage, site: lung, lesion: alveolar/bronchiolar adenoma, dosed 78 weeks, study length 78 weeks): 65 mg/kg/day (inactive)
TD50 (mouse, strain B6C3F1, males, by gavage, site: lung, lesion: alveolar/bronchiolar carcinoma, dosed 78 weeks, study length 78 weeks): 227 mg/kg/day (inactive)
carcinogen call (rat, strain F344/DuCrj, females, by gavage, site: any site (literature study), lesion: several types, types named in the paper, dosed 104 weeks, study length 104 weeks): negative (inactive)
carcinogen call (rat, strain F344/DuCrj, females, by gavage, site: liver, lesion: hepatocellular adenoma, dosed 104 weeks, study length 104 weeks): negative (inactive)
carcinogen call (rat, strain F344/DuCrj, females, by gavage, site: liver, lesion: hepatocellular carcinoma, dosed 104 weeks, study length 104 weeks): negative (inactive)
carcinogen call (rat, strain F344/DuCrj, males, by gavage, site: any site (literature study), lesion: several types, types named in the paper, dosed 104 weeks, study length 104 weeks): negative (inactive)
TD50 (rat, strain F344/DuCrj, males, by gavage, site: liver, lesion: hepatocellular adenoma, dosed 104 weeks, study length 104 weeks): 117 mg/kg/day (inactive)
TD50 (rat, strain F344/DuCrj, males, by gavage, site: liver, lesion: hepatocellular carcinoma, dosed 104 weeks, study length 104 weeks): 237 mg/kg/day (inactive)

CC(C)C[C@H]1C(=O)N2CCC[C@H]2[C@]2(O)O[C@](NC(=O)[C@@H]3C=C4c5cccc6[nH]c(Br)c(c56)C[C@H]4N(C)C3)(C(C)C)C(=O)N12
TD50 (mouse, strain OF1, females, in feed, site: any site (literature study), lesion: several types, types named in the paper, dosed 74 weeks, study length 74 weeks): 175 mg/kg/day (inactive)
carcinogen call (mouse, strain OF1, females, in feed, site: liver, lesion: neoplastic nodule, dosed 74 weeks, study length 74 weeks): negative (inactive)
carcinogen call (mouse, strain OF1, females, in feed, site: lung, lesion: adenoma, dosed 74 weeks, study length 74 weeks): negative (inactive)
TD50 (mouse, strain OF1, males, in feed, site: any site (literature study), lesion: several types, types named in the paper, dosed 74 weeks, study length 74 weeks): 68 mg/kg/day (inactive)
TD50 (mouse, strain OF1, males, in feed, site: liver, lesion: neoplastic nodule, dosed 74 weeks, study length 74 weeks): 308 mg/kg/day (inactive)
TD50 (mouse, strain OF1, males, in feed, site: lung, lesion: adenoma, dosed 74 weeks, study length 74 weeks): 618 mg/kg/day (inactive)
TD50 (rat, strain OFA (Sprague-Dawley derived), females, in feed, site: uterus, lesion: malignant tumor, dosed 100 weeks, study length 100 weeks): 117 mg/kg/day
TD50 (rat, strain OFA (Sprague-Dawley derived), females, in feed, site: uterus, lesion: several types, types named in the paper, dosed 100 weeks, study length 100 weeks): 33.7 mg/kg/day

CN(CC(O)CO)N=O (centres undefined)
TD50 (hamster, strain Syrian Golden, females, by gavage, site: any site (literature study), lesion: several types, types named in the paper, dosed 41 weeks, study length 81 weeks): 0.509 mg/kg/day
TD50 (hamster, strain Syrian Golden, females, by gavage, site: liver, lesion: all vascular tumors, dosed 41 weeks, study length 81 weeks): 12.7 mg/kg/day (inactive)
TD50 (hamster, strain Syrian Golden, females, by gavage, site: nasal mucosa, lesion: carcinoma, dosed 41 weeks, study length 81 weeks): 1.51 mg/kg/day
TD50 (hamster, strain Syrian Golden, females, by gavage, site: nasal mucosa, lesion: several types, types named in the paper, dosed 41 weeks, study length 81 weeks): 0.94 mg/kg/day
TD50 (rat, strain Fischer 344, females, in drinking water, site: esophagus, lesion: several types, types named in the paper, dosed 40 weeks, study length 110 weeks): 1.48 mg/kg/day
TD50 (rat, strain Fischer 344, females, in drinking water, site: liver, lesion: hepatocellular carcinoma, dosed 40 weeks, study length 110 weeks): 3.13 mg/kg/day
TD50 (rat, strain Fischer 344, females, in drinking water, site: liver, lesion: neoplastic nodule, dosed 40 weeks, study length 110 weeks): 1.01 mg/kg/day
TD50 (rat, strain Fischer 344, females, in drinking water, site: liver, lesion: several types, types named in the paper, dosed 40 weeks, study length 110 weeks): 0.67 mg/kg/day
TD50 (rat, strain Fischer 344, females, in drinking water, site: lung, lesion: several types, types named in the paper, dosed 40 weeks, study length 110 weeks): 0.646 mg/kg/day
TD50 (rat, strain Fischer 344, females, in drinking water, site: nasal cavity, lesion: several types, types named in the paper, dosed 40 weeks, study length 110 weeks): 1.48 mg/kg/day
